# Source: US4726941A, “Acylated cyanamide composition for treating ethanol ingestion” (Regents of the University of Minnesota, priority 1986, dated 1988)
# Tested on: aldehyde dehydrogenase (AlDH)
# Assay: not given
# Conditions: clinical use, background statement; cited from earlier work
row,Structure (SMILES),duration of activity
1,[Ca+2].[N-]=C=[N-] [calcium carbimide],approximately 24 hours

# Tested on: AlDH
# Assay: Time course protocol (72 hour), ip: blood AcH after ethanol in rats
# Assay type: in vivo
# Conditions: rat, FIG. 5 (0.5 mmol/kg)
# Procedure: FIG. 5 is a graphic depiction of the effectiveness of four of the compositions of the invention in elevating blood AcH following ethanol administration in rats over a 72 hour time course (0.5 mmol/kg i.p. dose).
# (§1) 1. Drug Dose: 0.5 mmol/kg (ip); 1.0 mmol/kg (po)
# (§2) 2. Animals: Male rats of Sprague-Dawley descent (BioLab, Inc., St. Paul, MN), weighing 176-200 g were used. Two animals were used for each drug administration protocol.
# (§3) 3. Timing: Overnight fasted animals were administered the prodrug at zero time, ethanol (2 g/kg, ip) at 1, 4, 11, 23, 35, 47 and 71 hours and sacrificed 1 hour subsequent to each ethanol administration. Cyanamide treated animals (1.0 mmol/kg) served as positive control.
# (§4) Blood AcH levels were measured 1 hour after ethanol (2 g/kg, ip) in treated and control animals essentially as described by Shirota et al., in J. Med Chem., 23, 669 (1980). The animal was stunned by a quick blow to the head and blood was immediately withdrawn by open chest cardiac puncture. Aliquots (0.2 ml) were placed in 20 ml serum vials containing 1.0 ml of 5 mM sodium azide (to minimize the artifactual generation of AcH from ethanol), and the vials immediately capped with a rubber septum, frozen on Dry Ice, and kept frozen at -20° C. until assayed. AcH was determined in duplicate by the head-space gas chromatographic procedure previously described by Nagasawa et al., in Life Sci., 20, 187 (1977), and quantitated using a standard curve based on standards with known concentrations of AcH.
row,Structure (SMILES),duration of blood AcH elevation over 72-hour time course (in words)
1,"CCCCCCCCCCCCCCCC(=O)NC#N [Compound 6, Palmitoylcyanamide]",significantly elevated even at 48 hours
2,"CCCCCCCCCCCCCCCCCC(=O)NC#N [Compound 7, Stearoylcyanamide]",gradually fell
3,"N#CNC(=O)CNC(=O)c1ccccc1.N#CNC(=O)CNC(=O)c1ccccc1 [Compound 10, N-Benzoylglycylcyanamide (Hippurylcyanamide)]",failed to maintain elevated blood AcH past 12 hours
4,"CC(C)C[C@H](NC(=O)c1ccccc1)C(=O)NC#N [Compound 11, N-Benzoyl-L-leucylcyanamide]",continued to maintain elevated blood AcH even at 72 hours
5,"N#CN [Cyanamide, cyanamide]",fell rapidly almost to control values at 36 hours

# Same assay, conditions: rat, FIG. 5 (0.5 mmol/kg), ethanol 2 g/kg ip 1 hour before sacrifice
row,Structure (SMILES),time at which blood AcH elevation reached maximum
1,"CCCCCCCCCCCCCCCC(=O)NC#N [Compound 6, Palmitoylcyanamide]",around 5 hours
2,"CCCCCCCCCCCCCCCCCC(=O)NC#N [Compound 7, Stearoylcyanamide]",around 5 hours
3,"N#CN [Cyanamide, cyanamide]",≤ 2 h

# Same assay, conditions: rat, FIG. 5, 2 hours
row,Structure (SMILES),initial blood AcH level at 2 hours compared with cyanamide
1,"CC(C)C[C@H](NC(=O)c1ccccc1)C(=O)NC#N [Compound 11, N-Benzoyl-L-leucylcyanamide]",less than cyanamide

# Tested on: not listed separately
# Assay: Stability of the purified compound on standing
# Assay type: physicochemical
# Conditions: clear colorless liquid, storage at 5° C.
# Procedure: n-Butyryl chloride (3.2 g, 3.12 ml, 0.030 mol) in 50 ml of freshly distilled dry THF was added drop-wise to a suspension of sodium cyanamide (5.76 g, 0.090 mol) in 100 ml of freshly distilled dry THF at ice bath temperature. The reaction was allowed to proceed at room temperature for 24 hours and then the mixture evaporated to dryness in vacuo. The resulting yellow solid residue was dissolved in distilled water (50 ml) and the alkaline solution was adjusted to pH 6.5 with 10% HCl. The mixture was then extracted with ethyl acetate (2×50 ml). […] TLC: Rf =0.6 in EtOAC/petroleum ether/AcOH (50:100:1), detected by UV quenching and orange color with ferricyanide spray reagent; IR (neat, cm^-1) 3100-3250 (NH), 2860-2960 (alkyl), 2260 (C≡N), 1725 (C=0); NMR (Silanor C, δ from TMS) 8.2-8.5 (broad, NH), 2.3-2.6 (t, --CH2 --CH2 --C=O), 1.5-1.9 (sextet, CH3 --CH2 --CH2 --), 0.8-1.1 (t, CH3 --CH2 --); CI--MS (NH 3 : positive) m/z (rel. intensity) 147 (12.6, [(M+1)+2NH3 ]), 130 (100.0) [(M+1)+NH3 ], 105 (5.2) [(M+1)+2NH3 --H2 NCN]; CI--MS (NH3 : negative) m/z (rel. intensity) 111 (100.0) [M-1], 68 (2.0) [(M-1)--CH3 CH2 CH2 ], 41 (16.7) [(M-1)--CH3 CH2 CH=C=O].
row,Structure (SMILES),stability on standing
1,"CCCC(=O)NC#N [Compound 5, n-Butyrylcyanamide]",decomposes on standing even at 5 °C after prolonged periods

# Tested on: AlDH
# Assay: Time course protocol (72 hour), oral: blood AcH after ethanol in rats
# Assay type: in vivo
# Conditions: rat, 1.0 mmol/kg po, FIG. 6
# Procedure: FIG. 6 is a graphic depiction of the effectiveness of palmitoylcyanamide and N-benzoyl-L-leucylcyanamide, administered orally, in elevating blood AcH following ethanol administration in rats over a 72 hour time course.
# as §1, §2, §3, §4
Structure (SMILES),time at which AcH levels once again increased [h],time at which blood AcH fell back to control levels,time of maximum AcH levels [h],time of trough of AcH levels [h]
"CCCCCCCCCCCCCCCC(=O)NC#N [Compound 6, Palmitoylcyanamide]",24,around 36 hours,2,12
"CC(C)C[C@H](NC(=O)c1ccccc1)C(=O)NC#N [Compound 11, N-Benzoyl-L-leucylcyanamide]",24,around 36 hours,2,12

# Tested on: not given
# Assay: not given
# Conditions: rat, within 6 hours; cited from earlier work
row,Structure (SMILES),administered cyanamide eliminated as acetylcyanamide in the urine
1,"N#CN [Cyanamide, cyanamide]",At least 94%

# Tested on: AlDH
# Assay: Initial screen: elevation of blood acetaldehyde (AcH) after ethanol in rats, prodrug 1.0 mmol/kg ip
# Assay type: in vivo
# Conditions: rat, 3 hours post-drug
# Procedure: Compounds 1-11 were evaluated in rats for their ability to elevate and maintain blood acetaldehyde (AcH) levels following ethanol administration employing the methodology outlined in Table I.
# 1. Drug Dose: 1.0 mmol/kg (ip)
# 2. Animals: Male rats of Sprague-Dawley descent (BioLab, Inc., St. Paul, MN), weighing 185-225 g were used. Four animals were used for each drug administration protocol.
# 3. Timing: Animals were fasted beginning at 7:00 or 8:00 AM. One group of rats were administered the prodrug at 5:00 PM (zero time) and ethanol (2 g/kg, ip) at 8:00 AM (15 hours), and the animals were sacrificed at 9:00 AM (16 hours). A second set of rats received the prodrug at 6:30 AM (zero time) and ethanol at 8:30 AM (2 hours) and the animals were sacrificed at 9:30 AM (3 hours). Cyanamide treated animals (1.0 mmol/kg) served as positive control. Blood AcH levels were determined as described hereinbelow.
# as §4
row,Structure (SMILES),potency in elevating ethanol-derived blood AcH (in words)
1,"CC(=O)NC#N.[Na] [Compound 1, Sodium Acetylcyanamide]",much weaker than cyanamide
2,"CC(C)(C)C(=O)NC#N [Compound 3, Pivaloylcyanamide]",very potent
3,"N#CNC(=O)C12CC3CC(CC(C3)C1)C2.N#CNC(=O)C12CC3CC(CC(C3)C1)C2 [Compound 4, 1-Adamantanecarbonyl Cyanamide (1-Adamantoylcyanamide)]",very potent
4,"CCCC(=O)NC#N [Compound 5, n-Butyrylcyanamide]",even more potent than cyanamide itself
5,"CCCCCCCCCCCCCCCC(=O)NC#N [Compound 6, Palmitoylcyanamide]",almost as potent as cyanamide
6,"CCCCCCCCCCCCCCCCCC(=O)NC#N [Compound 7, Stearoylcyanamide]",almost as potent as cyanamide
7,"N#CNC(=O)CNC(=O)c1ccccc1.N#CNC(=O)CNC(=O)c1ccccc1 [Compound 10, N-Benzoylglycylcyanamide (Hippurylcyanamide)]",less potent than N-benzoyl-L-leucylcyanamide (11)
8,"CC(C)C[C@H](NC(=O)c1ccccc1)C(=O)NC#N [Compound 11, N-Benzoyl-L-leucylcyanamide]",elevated blood AcH levels
9,"CC(C)C[C@H](NC(=O)CNC(=O)OCc1ccccc1)C(=O)NC#N [Compound 12, N-Cbz-glycyl-L-leucylcyanamide]",more potent than (9)
10,"N#CNC(=O)[C@@H]1CCC(=O)N1C(=O)OCc1ccccc1 [Compound 13, N-Cbz-L-pyroglutamylcyanamide]",not nearly as potent as the other prodrugs
11,"CC(C)C[C@H](NC(=O)[C@@H]1CCC(=O)N1)C(=O)NC#N [Compound 14, L-Pyroglutamyl-L-leucylcyanamide]",not nearly as potent as the other prodrugs
12,"N#CNC(=O)[C@H](Cc1ccccc1)NC(=O)[C@@H]1CCC(=O)N1 [Compound 15, L-Pyroglutamyl-L-phenylalanylcyanamide]",very potent inhibitor of AlDH in vivo

# Same assay, conditions: rat, 16 hours post-drug
row,Structure (SMILES),duration of action / blood AcH at 16 hours (in words)
1,"CC(C)(C)C(=O)NC#N [Compound 3, Pivaloylcyanamide]",short acting
2,"N#CNC(=O)C12CC3CC(CC(C3)C1)C2.N#CNC(=O)C12CC3CC(CC(C3)C1)C2 [Compound 4, 1-Adamantanecarbonyl Cyanamide (1-Adamantoylcyanamide)]",short acting
3,"CCCC(=O)NC#N [Compound 5, n-Butyrylcyanamide]",short-acting
4,"N#CNC(=O)CNC(=O)OCc1ccccc1 [Compound 9, N-Carbobenzoxyglycylcyanamide]",reduced to almost control levels
5,"N#CNC(=O)CNC(=O)c1ccccc1.N#CNC(=O)CNC(=O)c1ccccc1 [Compound 10, N-Benzoylglycylcyanamide (Hippurylcyanamide)]",long-acting with significant levels of blood AcH present
6,"CC(C)C[C@H](NC(=O)c1ccccc1)C(=O)NC#N [Compound 11, N-Benzoyl-L-leucylcyanamide]",long-acting with significant levels of blood AcH present
7,"CC(C)C[C@H](NC(=O)CNC(=O)OCc1ccccc1)C(=O)NC#N [Compound 12, N-Cbz-glycyl-L-leucylcyanamide]",did not maintain significantly elevated blood AcH level

# Same assay, conditions: rat, ethanol 2 g/kg ip at 2 hours, sacrifice 3 hours post-drug
row,Structure (SMILES),elevation of blood AcH over drug-free controls at 3 hours
1,"CC(=O)NC#N.[Na] [Compound 1, Sodium Acetylcyanamide]",25 fold
2,"CCCC(=O)NC#N [Compound 5, n-Butyrylcyanamide]",170 fold
3,"N#CNC(=O)OCc1ccccc1.[Na] [Compound 8, N-Carbobenzoxycyanamide, Sodium Salt]",120 fold
4,"N#CNC(=O)CNC(=O)OCc1ccccc1 [Compound 9, N-Carbobenzoxyglycylcyanamide]",more than 80 fold
5,"N#CNC(=O)[C@H](Cc1ccccc1)NC(=O)[C@@H]1CCC(=O)N1 [Compound 15, L-Pyroglutamyl-L-phenylalanylcyanamide]",more than 110 fold
6,"N#CN [Cyanamide, cyanamide]",150 fold

# Same assay, conditions: rat, ethanol 2 g/kg ip at 15 hours, sacrifice 16 hours post-drug
row,Structure (SMILES),elevation of blood AcH over controls at 16 hours
1,"N#CNC(=O)c1ccccc1 [Compound 2, Benzoylcyanamide]",10 fold
2,"CCCC(=O)NC#N [Compound 5, n-Butyrylcyanamide]",approximately 20 fold
3,"CCCCCCCCCCCCCCCC(=O)NC#N [Compound 6, Palmitoylcyanamide]",100 fold
4,"CCCCCCCCCCCCCCCCCC(=O)NC#N [Compound 7, Stearoylcyanamide]",more than 50 fold
5,"N#CN [Cyanamide, cyanamide]",more than 25 fold

# Tested on: aldehyde dehydrogenase (AlDH)
# Assay: not given
# Conditions: without enzymatic activation, listed as cyanamide; cited from earlier work
row,Structure (SMILES),AlDH inhibitory activity in vitro
1,"N#CN [Cyanamide, cyanamide]",devoid of AlDH inhibitory activity in vitro

# Same assay, conditions: without enzymatic activation; cited from earlier work
row,Structure (SMILES),AlDH inhibitory activity in vitro
1,"CC(=O)NC#N [AC, acetylcyanamide]",devoid of AlDH inhibitory activity in vitro
2,"N#CN [Cyanamide, cyanamide]",does not inhibit AlDH
